Legend:
Type in all cases: in vivo, rat
cataract in OXYS rats [1] = assay: Prophylactic effect on cataract (lens changes), ophthalmoscopic examination of OXYS rats; conditions: for lens changes observed/registered (cataract morbidity): after oral course from 1.5 to 3 months, % of eyes/cases; for lens changes observed/registered (cataract morbidity) / cataract newly affected/added during the course (20% of eyes already affected at 1.5 months): SkQ1 or KBr 50 nmol per kg; for 2nd stage of cataract: KBr: % of total number of eyes, vitamin E: % of changes
Protocol: (§1) The study was carried out using OXYS and Wistar male rats. The animals were housed in cages (five rats per a cage) and kept under standard laboratory conditions (at 22±1° C., 60% relative humidity, and natural light), provided with a standard rodent diet (PK-120-1, Ltd. ‘Laboratorsnab’, Russia), and given water ad libitum. At the age of 1.5 months after preliminary pupil dilation with 1% tropicamide ophthalmic the rats were examined by ophthalmologist. During the period from 1.5 to 3 months, which is critical for the development of pronounced changes in eye organ of OXYS rats, the animals were given either SkQ1 (50 nmol per kg of body weight), or KBr (50 nmol per kg of body weight) or vitamin E (alfa-tocopherol acetate, 20 mg per kg). We use Vitamin E for a comparison with test antioxidants. Animals received the compounds on a small piece of dried bread before a regular meal, and the control group of animals received the same piece of bread without any compound. After completing the course of antioxidants the animals were weighed and retested with ophthalmoscope. To avoid human factor in the evaluation of compound effects, the researcher who conducted the ophthalmoscopic examination was not told which of the animals received antioxidants.
(§2) The ophthalmoscopic examination was carried out using direct ophthalmoscope “Betta”, Germany. In selected animals under fluorotane narcosis (1-1.5 minutes) eyeground was photographed, fluorescent angiography with the use of “Opton” fundus-camera was conducted or crystalline lenses were examined by means of slitlamp “Opton SL30” using system of automatic image registration (biomicroscopic research).
(§3) The lens state was evaluated according to the classification system accepted in clinical practice (L. A. Katsnelson, T. I. Forofonova, A. Ya. Bunin, 1990) with grades ranging from 0 to 3: score 0—the lens is clear; score 1—spotted weak cloudiness; score 2—multiple spots of cloudiness and score 3—intense cloudiness of the lens core and nucleus. The presence and the degree of spotted changes in macular area were evaluated according to accepted classification: score 0—no changes; score 1—the 1st stage of pathology, when small yellow deposits, known as “drusen” appear underneath the macula; score 2—2nd stage, the development of prominent yellow spot with sharp edges with the size of 0.5 to 1 of the disk diameter (exudative detachment of pigment retinal epithelium); and score 3—3rd stage with extensive hemorrhage into macular area.
(§4) Statistical processing of the results was carried out using the factorial dispersive analysis (ANOVA/MANOVA, Statistica, 5) with post hoc comparison of group average (Newman-Keul test) considering genotype and preparation as independent factors.

retina of Wistar rats = assay: Therapeutic experiment, macular area of retina, Wistar rats aged 10.5 months; conditions: for Changes of macular area of retina, grades (score): Wistar rats, examination after therapy course at the age of 12 months, 50 nmol per kg of body weight, score 0-3
Protocol: as §1, with “by ophthalmologist. […], which is” for “by ophthalmologist. During the period from 1.5 to 3 months, which is”, “received antioxidants. […]” for “received antioxidants.”
(§5) The lens state was evaluated according to the classification system accepted in clinical practice (L. A. Katsnelson, T. I. Forofonova, A. Ya. Bunin, 1990) with grades ranging from 0 to 3: score 0—the lens is clear; score 1—spotted weak cloudiness; score 2—multiple spots of cloudiness and score 3—intense cloudiness of the lens core and nucleus. The presence and the degree of spotted changes in macular area were evaluated according to accepted classification: score 0—no changes; score 1—the 1st stage of pathology, when small yellow deposits, known as “drusen” appear underneath the macula; score 2—2nd stage, the development of prominent yellow spot with sharp edges with the size of 0.5 to 1 of the disk diameter (exudative detachment of pigment retinal epithelium); and score 3—3rd stage with extensive hemorrhage into macular area. […]

[2] = test system: macular dystrophy in OXYS rats; assay: Prophylactic effect on macular dystrophy (changes in macular area of retina), ophthalmoscopic examination of OXYS rats; conditions: for changes in the macular area of the retina (macular dystrophy morbidity): after oral course from 1.5 to 3 months, % of eyes/cases; for changes in the macular area of the retina (macular dystrophy morbidity) / macular dystrophy newly affected during the course (10% already affected at 1.5 months): SkQ1 or KBr 50 nmol per kg; for 2nd stage of macular degeneration: KBr: % of these changes
Protocol: as §1, §2, §3, §4

[3] = test system: macular dystrophy (retinopathy) in OXYS rats; assay: Therapeutic effect on macular area of retina, OXYS rats aged 10.5 months; conditions: for pathological changes of retina, before vs after the therapy course / Changes of macular area of retina, grades (score): OXYS rats; for pathological changes of retina, before vs after the therapy course: 10.5 to 12 months, pair comparisons / comparison of average values; for Changes of macular area of retina, grades (score): examination after therapy course at the age of 12 months, 50 nmol per kg of body weight, score 0-3
Protocol: as §1, with “During the period from 1.5 to 3 months, which is critical for the development of pronounced changes in eye organ of OXYS rats, the animals were given either SkQ1 (50 nmol per kg of body weight), or KBr (50 nmol per kg of body weight) or vitamin E (alfa-tocopherol acetate, 20 mg per kg).” left out
as §2, §3, §4

lenses of Wistar rats = assay: Therapeutic experiment, state of crystalline lenses, Wistar rats aged 10.5 months; conditions: examination after therapy course at the age of 12 months, 50 nmol per kg of body weight, score 0-3
Protocol: The study was carried out using OXYS and Wistar male rats. The animals were housed in cages (five rats per a cage) and kept under standard laboratory conditions (at 22±1° C., 60% relative humidity, and natural light), provided with a standard rodent diet (PK-120-1, Ltd. ‘Laboratorsnab’, Russia), and given water ad libitum. At the age of 1.5 months after preliminary pupil dilation with 1% tropicamide ophthalmic the rats were examined by ophthalmologist. […]
as §5

cataract in OXYS rats [4] = assay: Therapeutic effect on state of crystalline lenses, OXYS rats aged 10.5 months; conditions: for pathological changes of lenses, before vs after the therapy course: 10.5 to 12 months, pair comparisons / comparison of average values; for Changes of lenses, grades (score): examination after therapy course at the age of 12 months, 50 nmol per kg of body weight, score 0-3
Protocol: as §1, with “[…],” for “During the period from 1.5 to 3 months,”
as §2, §3, §4

[5] = OXYS rats at 3 months, after course from 1.5 to 3 months, SkQ1 50 nmol per kg
[6] = OXYS rats at 3 months, vitamin E 20 mg per kg
[7] = OXYS rats, 1.5 to 3 months, SkQ1 50 nmol per kg
[8] = OXYS rats, 1.5 to 3 months, vitamin E 20 mg per kg
[9] = one month after the end of SkQ1 administration, in contrast to the control group
[10] = OXYS rats after SkQ1 therapy course
[11] = OXYS rats at 3 months, after course from 1.5 to 3 months

| Structure (SMILES) | lens changes observed/registered (cataract morbidity) (cataract in OXYS rats [1]; [6]) [%] | cataract newly affected/added during the course (20% of eyes already affected at 1.5 months) (cataract in OXYS rats [1]; [8]) [%] | Changes of macular area of retina, grades (score) (retina of Wistar rats) | changes in the macular area of the retina (macular dystrophy morbidity) [2, 6] [%] | macular dystrophy newly affected during the course (10% already affected at 1.5 months) ([2]; OXYS rats, 1.5 to 3 months) [%] | pathological changes of retina, before vs after the therapy course [3] | Changes of macular area of retina, grades (score) [3] [score] | Changes of lenses, grades (score) (lenses of Wistar rats) | pathological changes of lenses, before vs after the therapy course (cataract in OXYS rats [4]) | Changes of lenses, grades (score) (cataract in OXYS rats [4]) | 2nd stage of cataract (cataract in OXYS rats [1]; [11]) [%] | 2nd stage of macular degeneration [2, 11] [%] | further results |
| --- | --- | --- | --- | --- | --- | --- | --- | --- | --- | --- | --- | --- | --- |
| CC1=C(C)C(=O)C(CCCCCCCCCC[P+](c2ccccc2)(c2ccccc2)c2ccccc2)=CC1=O.[Br-] [SkQ1] | 46 | 26 | 0.09 ± 0.06 | 38 | 28 | much less pronounced | 0.32 ± 0.13 | 0.54 ± 0.14 | much less pronounced | 0.41 ± 0.13 | – | – | stage to which the lens changes corresponded (cataract in OXYS rats [1]; [5]): 1st stage of cataract; cataract cases, times less than in the group supplemented with KBr (cataract in OXYS rats [1]; [7]): 2.8 times; effect on cataract progression (cataract in OXYS rats [1]; OXYS rats, FIG. 3): essentially affected their progression; changes in the state of crystalline lens after the end of the course (cataract in OXYS rats [1]; [9]): no any changes; animals with changes of retina appropriate to even the most initial stage of disease (retina of Wistar rats; Wistar rats supplemented with SkQ1, after 45 days): practically absent; stage to which the macular changes corresponded [2, 5]: 1st stage of macular degeneration; macular dystrophy cases, times less than in the control group [2, 7]: 2.8 times; effect on macular dystrophy progression ([2]; OXYS rats, FIG. 4): essentially affected their progression; changes in the state of retina after the end of the course [2, 9]: no any changes; hemorrhages in retina [3, 10]: resolution of hemorrhages; ischemic centers in retina [3, 10]: reduction of quantity and area of ischemic centers; puffiness of retina [3, 10]: significant reduction of puffiness |
| [Br-].[K+] [KBr, reference compound] | 93 | 73 | 0.25 ± 0.10 | 87 | 77 | no any changes | 1.13 ± 0.17 | 0.5 ± 0.15 | authentically aggravated | 1.6 ± 0.23 | 57 | 13 | – |
| CC(=O)Oc1c(C)c(C)c2c(c1C)CCC(C)(CCC[C@H](C)CCC[C@H](C)CCCC(C)C)O2 (some centres unmarked) [vitamin E, alfa-tocopherol acetate] | 58 | 38 | – | 54 | – | – | – | – | – | – | 12 | 8 | cataract cases, times less than in the control intact group (cataract in OXYS rats [1]; [8]): 1.8 times; macular changes, times less than in the control intact group [2, 8]: 1.5 times |

From patent US9572821B2, “Pharmaceutical compositions for preventing and treating eye pathologies” (MITOTECH SA, priority 2006, dated 2017)
